The source of these data is US9394286B2, “Rock inhibitors” (Amakem NV, priority 2012, dated 2016).

The structures appear in SMILES notation. Structures can show the parent of a compound that is named as a salt.

One data set has as its target ROCK2 (Homo sapiens, UniProt O75116). Kind of data set: Kinase inhibition (ROCKI & ROCKII), radiometric 33P-ATP assay. It counts as biochemical. The note with it: ROCK 1 nM, 120 min at room temperature. The method, then:
On-target activity against ROCK was measured in a biochemical assay, using the following reagents: Base Reaction buffer; 20 mM Hepes (pH 7.5), 10 mM MgCl2, 1 mM EGTA, 0.02% Brij35, 0.02 mg/ml BSA, 0.1 mM Na3VO4, 2 mM DTT, 1% DMSO. Required cofactors are added individually to each kinase reaction. The reaction procedure first involved the preparation of a peptide substrate in a freshly prepared reaction buffer. Required cofactors were then added to the substrate solution. ROCK (1 nM final concentration) was then delivered to the substrate solution. After gentle mix, DMSO solutions of the test compounds were added to the enzyme. Substrate mix ^33P-ATP (specific activity 0.01 μCi/μl final) was then delivered into the reaction mixture to initiate the reaction. The kinase reaction was incubated for 120 min. at room temperature. Reactions were then spotted onto P81 ion exchange paper (Whatman #3698-915). Filters were washed extensively in 0.1% Phosphoric acid. A radiometric count was then performed and IC50 values were subsequently determined.
The IC50 values obtained (in accordance with the protocol set forth above) are represented as follows: “+++” means IC50 below 0.1 μM, “++” means IC50 between 0.1 μM and 1 μM; “+” means IC50 between 1 and 10 μM and “ND” means “not determined yet”.

The test system of data set [1] is MLC-T18/S19 phosphorylation. Kind of data set: Myosin light chain phosphorylation assay (ELISA) in A7r5 cells. The note with it: for EC50: Rattus norvegicus, MLC-T18/S19 phosphorylation, A7r5 cells, serum-free medium. It is filed as cell-based, Rat. The method, then: Rat smooth muscle cell line A7r5 is used. The endogenous expression of ROCK results in a constitutive phosphorylation of the regulatory myosin light chain at T18/S19. A7r5 cells were plated in DMEM supplemented with 10% FCS in multiwall cell culture plates. After serum starvation overnight, cells were incubated with compounds in serum-free medium.
Quantification of MLC-T18/S19 phosphorylation is assesses in 96 well-plates via ELISA using a phspho-MLC-T18/S19 specific antibody and a secondary detection antibody. Relative MLC phosphorylation is measured with respect to untreated cells (Positive control, 1.0) and cells treated with 100 μM Y-27632 (Negative control, 0.0). EC50 values were determined using GraphPad Prism 5.01 software using a nonlinear regression curve fit with variable hill slope.
The […] values obtained (in accordance with the protocols set forth above) are represented as follows: “+++” means EC50 below 0.3 μM, “++” means EC50 between 0.3 μM and 1 μM; “+” means EC50 between 1 and 10 μM and “−” means EC50>10 μM.

Data set [2] in a line: Stability assay in rabbit aqueous humor. It counts as in vitro ADME. The note with it: 1 μM compound in rabbit aqueous humor, LC-MS/MS; read-out: t½ AH. Here is the method: Compounds are incubated at a concentration of 1 μM in rabbit aqueous humor (AH). Samples are taken at fixed time points and the remnant of compound is determined by LC-MS/MS after protein precipitation. Half life is expressed in minutes.

Data set [3] can be described thus: Stability assay in human plasma. It counts as in vitro ADME. As to conditions: 1 μM compound, LC-MS/MS, read-out: t½ human plasma. Here is the method: (§1) Compounds are incubated at a concentration of 1 μM in human or animal (rat, mice or rabbit) […] or whole blood. Samples are taken at fixed time points and the remnant of compound is determined by LC-MS/MS after protein precipitation. Half life is expressed in minutes.

Data set [4] is described as follows: Stability assay in human whole blood. It counts as in vitro ADME. The note with it: 1 μM compound, LC-MS/MS, read-out: t½ human whole blood. Here is the method: as §1

Chain of ROCK2 (O75116 whole entry, species assumed): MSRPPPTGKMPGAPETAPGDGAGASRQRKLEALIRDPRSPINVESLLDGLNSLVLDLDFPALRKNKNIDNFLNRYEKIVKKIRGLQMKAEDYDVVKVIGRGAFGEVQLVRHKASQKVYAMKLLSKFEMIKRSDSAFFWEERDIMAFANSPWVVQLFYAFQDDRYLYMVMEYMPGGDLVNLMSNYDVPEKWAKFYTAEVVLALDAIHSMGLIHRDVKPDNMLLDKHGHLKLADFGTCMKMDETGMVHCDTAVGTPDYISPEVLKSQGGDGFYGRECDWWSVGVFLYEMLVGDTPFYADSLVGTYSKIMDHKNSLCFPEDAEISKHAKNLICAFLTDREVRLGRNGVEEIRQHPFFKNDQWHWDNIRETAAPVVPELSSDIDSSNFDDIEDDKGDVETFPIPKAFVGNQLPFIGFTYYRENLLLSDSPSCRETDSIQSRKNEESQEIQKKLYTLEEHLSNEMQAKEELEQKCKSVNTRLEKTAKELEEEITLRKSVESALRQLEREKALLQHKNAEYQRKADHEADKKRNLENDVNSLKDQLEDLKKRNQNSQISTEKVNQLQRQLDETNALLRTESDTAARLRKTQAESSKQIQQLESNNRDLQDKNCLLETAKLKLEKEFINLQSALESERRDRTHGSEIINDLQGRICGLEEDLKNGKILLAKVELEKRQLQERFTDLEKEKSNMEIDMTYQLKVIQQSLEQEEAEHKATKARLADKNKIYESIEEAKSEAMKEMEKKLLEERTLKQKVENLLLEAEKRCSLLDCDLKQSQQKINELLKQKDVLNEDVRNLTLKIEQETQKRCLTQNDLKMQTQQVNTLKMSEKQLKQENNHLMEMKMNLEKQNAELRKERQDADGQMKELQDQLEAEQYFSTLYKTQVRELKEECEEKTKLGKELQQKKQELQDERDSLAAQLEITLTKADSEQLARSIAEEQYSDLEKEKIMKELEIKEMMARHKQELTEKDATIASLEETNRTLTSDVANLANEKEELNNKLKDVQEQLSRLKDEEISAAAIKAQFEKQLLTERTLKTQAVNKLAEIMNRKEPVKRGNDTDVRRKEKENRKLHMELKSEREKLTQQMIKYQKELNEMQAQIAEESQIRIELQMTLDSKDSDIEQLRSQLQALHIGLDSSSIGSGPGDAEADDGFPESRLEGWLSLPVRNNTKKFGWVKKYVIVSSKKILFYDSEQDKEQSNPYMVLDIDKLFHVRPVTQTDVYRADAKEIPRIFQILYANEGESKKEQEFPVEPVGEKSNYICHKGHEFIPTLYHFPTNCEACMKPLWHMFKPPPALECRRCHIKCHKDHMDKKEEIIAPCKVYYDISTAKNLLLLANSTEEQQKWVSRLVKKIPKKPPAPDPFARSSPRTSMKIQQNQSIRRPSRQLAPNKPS

The IC50 is the concentration that gives 50% inhibition. Read a low IC50 as inhibition by little substance. One may read the EC50 as the concentration giving half of the maximal effect. Low readings indicate an effect from little substance, high ones a need for much substance. The compound `COC(=O)c1cccc(C(=O)Nc2cccc(CN3CCC(Nc4cccc5cnccc45)C3)c2)c1` (stereo not shown) [Compound 1, Methyl 3-((3-((3-(isoquinolin-5-ylamino)pyrrolidin-1-yl)methyl)phenyl)carbamoyl)benzoate] showed an IC50 at ROCK2 below 100 nM. Also, the EC50 in data set [1] is below 300 nM. Further, the half-life at 1 μM in data set [2] was above 120 min.
With `COC(=O)c1ccc(C(=O)Nc2cccc(CN3CCC(Nc4cccc5cnccc45)C3)c2)cc1` (stereo not shown) [Compound 2, Methyl 4-((3-((3-(isoquinolin-5-ylamino)pyrrolidin-1-yl)methyl)phenyl)carbamoyl)benzoate], the IC50 on ROCK2 was below 100 nM. Moreover, the EC50 in data set [1] was below 300 nM.
As for `COC(=O)c1cccc(C(=O)Nc2cc(CN3CCCC(Nc4ccc5[nH]ncc5c4)C3)ccc2C)c1` (stereo not shown) [Compound 3, Methyl 3-((5-((3-((1H-indazol-5-yl)amino)piperidin-1-yl)methyl)-2-methylphenyl)carbamoyl)benzoate dihydrochloride], the half-life at 1 μM in data set [3] is 33 min; in data set [2], above 120 min.
For the compound `COC(=O)c1cccc(C(=O)Nc2cc(CN3CCC(Nc4cccc5cnccc45)C3)ccc2C)c1` (stereo not shown) [Compound 7], the half-life at 1 μM in data set [3] is 31 min; in data set [2] it was above 120 min.
With `COC(=O)c1ccc(C(=O)Nc2cc(CN3CCCC(Nc4ccc5[nH]ncc5c4)C3)ccc2C)cc1` (stereo not shown) [Compound 15], the half-life at 1 μM in data set [2] is above 120 min.
Turning to `COC(=O)c1cccc(C(=O)Nc2cccc(CNC3CCC(Nc4cccc5cnccc45)CC3)c2)c1` (stereo not shown) [Compound 16], the IC50 on ROCK2 was below 100 nM. The compound also gave an EC50 in data set [1] below 300 nM. The half-life at 1 μM in data set [3] is below 20 min.
The compound `COC(=O)c1ccc(C(=O)Nc2cccc(CNC3CCC(Nc4cccc5cnccc45)CC3)c2)cc1` (stereo not shown) [Compound 17] showed an IC50 on ROCK2 below 100 nM.
In turn, `COC(=O)c1cccc(C(=O)Nc2cccc(CN3CCC(Nc4cccc5cnccc45)CC3)c2)c1` [Compound 18] had an IC50 on ROCK2 below 100 nM.
Compound `COC(=O)c1ccc(C(=O)Nc2cccc(CN3CCC(Nc4cccc5cnccc45)CC3)c2)cc1` [Compound 19] had an IC50 against ROCK2 below 100 nM.
`CCCOC(=O)c1cccc(C(=O)Nc2cccc(CN3CCC(Nc4cccc5cnccc45)C3)c2)c1` (stereo not shown) [Compound 21] came in with an IC50 against ROCK2 below 100 nM. The compound further yielded an EC50 in data set [1] below 300 nM. Further, the half-life at 1 μM in data set [3] is below 20 min; in data set [4], below 20 min; in data set [2] it was 120 min.
`COCCOC(=O)c1cccc(C(=O)Nc2cccc(CN3CCC(Nc4cccc5cnccc45)C3)c2)c1` (stereo not shown) [Compound 22] registered an IC50 at ROCK2 below 100 nM. For the same compound, the concentration giving a half-maximal response (EC50) in data set [1] was below 300 nM. Also, the half-life at 1 μM in data set [3] is below 20 min; in data set [4], below 20 min; in data set [2], above 120 min.
As for `O=C(Nc1cccc(CN2CCC(Nc3cccc4cnccc34)C2)c1)c1cccc(C(=O)OCC2CCCO2)c1` (stereo not shown) [Compound 23], the IC50 on ROCK2 was below 100 nM. Further, the half-life at 1 μM in data set [3] is below 20 min; in data set [4] it was below 20 min; in data set [2] it was 77 min.
In the case of `CCCOC(=O)c1ccc(C(=O)Nc2cccc(CN3CCC(Nc4cccc5cnccc45)C3)c2)cc1` (stereo not shown) [Compound 24], the IC50 on ROCK2 was below 100 nM. The compound further displayed an EC50 in data set [1] below 300 nM.
Consider `COCCOC(=O)c1ccc(C(=O)Nc2cccc(CN3CCC(Nc4cccc5cnccc45)C3)c2)cc1` (stereo not shown) [Compound 25], for which, at ROCK2, the IC50 is below 100 nM.
Still for that read-out and setting: next, `O=C(Nc1cccc(CN2CCC(Nc3cccc4cnccc34)C2)c1)c1ccc(C(=O)OCC2CCCO2)cc1` (stereo not shown) [Compound 26]: below 100 nM.
In the case of `CCCOC(=O)c1cccc(C(=O)Nc2cccc(CNC3CCC(Nc4cccc5cnccc45)CC3)c2)c1` (stereo not shown) [Compound 27], the IC50 against ROCK2 is below 100 nM. In addition, the half-life at 1 μM is below 20 min in data set [3] and above 120 min in data set [2].
Consider `COCCOC(=O)c1cccc(C(=O)Nc2cccc(CNC3CCC(Nc4cccc5cnccc45)CC3)c2)c1` (stereo not shown) [Compound 28], for which the IC50 against ROCK2 was below 100 nM. Moreover, the figures for the half-life at 1 μM in data set [3] and in data set [2] were below 20 min and above 120 min, respectively.
Compound `O=C(Nc1cccc(CNC2CCC(Nc3cccc4cnccc34)CC2)c1)c1cccc(C(=O)OCC2CCCO2)c1` (stereo not shown) [Compound 29] gave an IC50 at ROCK2 below 100 nM. Also, the half-life at 1 μM in data set [3] was below 20 min; in data set [2], above 120 min.
In turn, `CCCOC(=O)c1ccc(C(=O)Nc2cccc(CNC3CCC(Nc4cccc5cnccc45)CC3)c2)cc1` (stereo not shown) [Compound 30] yielded an IC50 on ROCK2 below 100 nM.
For `COCCOC(=O)c1ccc(C(=O)Nc2cccc(CNC3CCC(Nc4cccc5cnccc45)CC3)c2)cc1` (stereo not shown) [Compound 31], at ROCK2, the IC50 was below 100 nM.
Turning to `O=C(Nc1cccc(CNC2CCC(Nc3cccc4cnccc34)CC2)c1)c1ccc(C(=O)OCC2CCCO2)cc1` (stereo not shown) [Compound 32], the IC50 against ROCK2 was below 100 nM. Besides, the EC50 in data set [1] fell in the range of 300 to 1000 nM. In data set [3], the half-life at 1 μM came out at 20 min.
Consider `CCCOC(=O)c1cccc(C(=O)Nc2cccc(CN3CCC(Nc4cccc5cnccc45)CC3)c2)c1` [Compound 33], for which the IC50 on ROCK2 is below 100 nM. Besides, the half-life at 1 μM is below 20 min in data set [3] and above 120 min in data set [2].
Turning to `COCCOC(=O)c1cccc(C(=O)Nc2cccc(CN3CCC(Nc4cccc5cnccc45)CC3)c2)c1` [Compound 34], the IC50 at ROCK2 was below 100 nM. In addition, the EC50 in data set [1] lay in the range of 300 to 1000 nM. In addition, the results for the half-life at 1 μM in data set [3] and in data set [2] were below 20 min and above 120 min, respectively.
Consider `O=C(Nc1cccc(CN2CCC(Nc3cccc4cnccc34)CC2)c1)c1cccc(C(=O)OCC2CCCO2)c1` (stereo not shown) [Compound 35], for which, on ROCK2, the IC50 was below 100 nM. Besides, the half-life at 1 μM in data set [3] is below 20 min; in data set [2], above 120 min.
At ROCK2, `CCCOC(=O)c1ccc(C(=O)Nc2cccc(CN3CCC(Nc4cccc5cnccc45)CC3)c2)cc1` [Compound 36] yielded an IC50 below 100 nM.
Same read-out and setting: to `COCCOC(=O)c1ccc(C(=O)Nc2cccc(CN3CCC(Nc4cccc5cnccc45)CC3)c2)cc1` [Compound 37] belongs below 100 nM; to `O=C(Nc1cccc(CN2CCC(Nc3cccc4cnccc34)CC2)c1)c1ccc(C(=O)OCC2CCCO2)cc1` (stereo not shown) [Compound 38], below 100 nM.
With `C[C@@H](N)[C@H]1CC[C@H](C(=O)Nc2ccncc2)CC1` [Compound Y-27632, Y-27632, reference compound], in data set [1], the EC50 lay within 300 to 1000 nM.
Compound `O=S(=O)(c1cccc2cnccc12)N1CCCNCC1` [Fasudil, reference compound] came in with an EC50 in data set [1] of 1000 to 10000 nM.
Turning to `O=C(O)c1ccc(C(=O)Nc2cccc(CNC3CCC(Nc4cccc5cnccc45)CC3)c2)cc1` (stereo not shown) [Met1], the “difference in EC50 values between compound 32 and its metabolite Met1” value in data set [1] (MLC phosphorylation assay, FIG. 1, Met1 versus parent compound 32) is given as above 20 fold.
